Results published in ChEMBL document CHEMBL1201862, “PubChem BioAssay data set” (2004).
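These data come from cells grown in 96-well plates and exposed to compound for 48 hours at five concentrations. Abbreviation: GI50, concentration required for 50% inhibition of growth.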 Calls of active or inactive are those of the source. Cut-off read from the data, not from the text of the source: active = GI50 up to about 1.1 µM and inactive = higher.

Legend:
Test in all cases: DTP human tumour cell line panel, 48 h
OVCAR-8 = tested on: OVCAR-8
HL-60 = tested on: HL-60
SR = tested on: SR
RXF 393 = tested on: RXF 393
SW-620 = tested on: SW-620
HOP-62 = tested on: HOP-62
Malme-3M = tested on: Malme-3M
UO-31 = tested on: UO-31
SK-OV-3 = tested on: SK-OV-3
NCI-H23 = tested on: NCI-H23
SF-268 = tested on: SF-268
RPMI-8226 = tested on: RPMI-8226
OVCAR-5 = tested on: OVCAR-5
IGROV-1 = tested on: IGROV-1
MDA-MB-435 = tested on: MDA-MB-435
SNB-75 = tested on: SNB-75
OVCAR-3 = tested on: OVCAR-3
NCI/ADR-RES = tested on: NCI/ADR-RES
CAKI-1 = tested on: CAKI-1
SNB-19 = tested on: SNB-19

Compound | GI50 (OVCAR-8) | GI50 (HL-60) | GI50 (SR) | GI50 (RXF 393) | GI50 (SW-620) | GI50 (HOP-62) | GI50 (Malme-3M) | GI50 (UO-31) | GI50 (SK-OV-3) | GI50 (NCI-H23) | GI50 (SF-268) | GI50 (RPMI-8226) | GI50 (OVCAR-5) | GI50 (IGROV-1) | GI50 (MDA-MB-435) | GI50 (SNB-75) | GI50 (OVCAR-3) | GI50 (NCI/ADR-RES) | GI50 (CAKI-1) | GI50 (SNB-19)
CCOC(=O)Cn1c(C(F)(F)F)nc2nc(Cl)c(Cl)nc21 | 38.5 µM (inactive) | 19.7 µM (inactive) | 24.2 µM (inactive) | 27.8 µM (inactive) | 54 µM (inactive) | 19.5 µM (inactive) | 38.4 µM (inactive) | 3.44 µM (inactive) | 49.1 µM (inactive) | 27 µM (inactive) | 34 µM (inactive) | 6.58 µM (inactive) | > 100 µM (inactive) | 22.8 µM (inactive) | 32.5 µM (inactive) | 55.2 µM (inactive) | 16.3 µM (inactive) | 50.2 µM (inactive) | 3.12 µM (inactive) | 34.4 µM (inactive)
Cc1cn(C2CC(O)C(Cn3cc(Cn4ncc(=O)[nH]c4=O)nn3)O2)c(=O)[nH]c1=O (stereo not given) | > 100 µM (inactive) | > 100 µM (inactive) | > 100 µM (inactive) | > 100 µM (inactive) | > 100 µM (inactive) | > 100 µM (inactive) | > 100 µM (inactive) | > 100 µM (inactive) | > 100 µM (inactive) | > 100 µM (inactive) | > 100 µM (inactive) | > 100 µM (inactive) | > 100 µM (inactive) | > 100 µM (inactive) | > 100 µM (inactive) | > 100 µM (inactive) | > 100 µM (inactive) | > 100 µM (inactive) | > 100 µM (inactive) | > 100 µM (inactive)
O/N=C1\CC2(N3CCOCC3)CCC1(c1ccccc1)CC2 | > 100 µM (inactive) | > 100 µM (inactive) | > 100 µM (inactive) | > 100 µM (inactive) | > 100 µM (inactive) | > 100 µM (inactive) | > 100 µM (inactive) | > 100 µM (inactive) | > 100 µM (inactive) | > 100 µM (inactive) | > 100 µM (inactive) | > 100 µM (inactive) | > 100 µM (inactive) | > 100 µM (inactive) | > 100 µM (inactive) | > 100 µM (inactive) | > 100 µM (inactive) | > 100 µM (inactive) | > 100 µM (inactive) | > 100 µM (inactive)
COc1ccc(CCNC2=CC(=O)c3ncccc3C2=O)cc1OC | 2.54 µM (inactive) | 2.82 µM (inactive) | 4.24 µM (inactive) | 3.9 µM (inactive) | 1.68 µM (inactive) | 1.89 µM (inactive) | 0.682 µM (active) | 0.931 µM (active) | 10.2 µM (inactive) | 0.346 µM (active) | 5.18 µM (inactive) | 5.57 µM (inactive) | 2.7 µM (inactive) | 1.55 µM (inactive) | 0.471 µM (active) | 0.748 µM (active) | 0.514 µM (active) | 2.28 µM (inactive) | 1.71 µM (inactive) | 1.86 µM (inactive)
COC(=O)c1ccccc1C1CN=NC12Cc1cccc(C)c1C2=O (stereo not given) | 42.4 µM (inactive) | 24.7 µM (inactive) | 94.4 µM (inactive) | 11.5 µM (inactive) | > 100 µM (inactive) | 45.2 µM (inactive) | 43.7 µM (inactive) | 20.8 µM (inactive) | > 100 µM (inactive) | 51.9 µM (inactive) | 61.4 µM (inactive) | 29 µM (inactive) | > 100 µM (inactive) | 59.8 µM (inactive) | 37.4 µM (inactive) | 33.3 µM (inactive) | 22.1 µM (inactive) | 9.84 µM (inactive) | 46.1 µM (inactive) | 70 µM (inactive)
CCOC(=O)c1cccc(/N=N/c2ncc(/C=C/C(=O)OC)[nH]2)c1 | 17.3 µM (inactive) | 5.97 µM (inactive) | 4.12 µM (inactive) | 29.9 µM (inactive) | 26.5 µM (inactive) | 16.3 µM (inactive) | 22.6 µM (inactive) | 18 µM (inactive) | 55.7 µM (inactive) | 28.2 µM (inactive) | 26.8 µM (inactive) | 16.3 µM (inactive) | 55 µM (inactive) | 20.6 µM (inactive) | 28 µM (inactive) | 26.4 µM (inactive) | 23.3 µM (inactive) | 22 µM (inactive) | 14.5 µM (inactive) | 34.4 µM (inactive)
C=C(C)[C@@H]1CC[C@]2(C(=O)O)CC[C@]3(C)[C@H](CC[C@@H]4[C@@]5(C)CC(=O)C(C)(C)[C@@H]5CC[C@]43C)[C@@H]12 | 11.2 µM (inactive) | 0.649 µM (active) | 5.13 µM (inactive) | 7.87 µM (inactive) | 7.23 µM (inactive) | 9.46 µM (inactive) | 8.05 µM (inactive) | 7.29 µM (inactive) | 10 µM (inactive) | 10.9 µM (inactive) | 14.8 µM (inactive) | 4.48 µM (inactive) | 11 µM (inactive) | 9.86 µM (inactive) | 8.02 µM (inactive) | 10.6 µM (inactive) | 6.38 µM (inactive) | 11.1 µM (inactive) | 12.2 µM (inactive) | 11.7 µM (inactive)
C[C@@H]1C[C@@H]2OC(=O)[C@]3(C)[C@H]2[C@@H](OC3(C)O)[C@]2(C)C(=O)C=C[C@@H]12 (stereo not given in full) [TENULIN] | 32.4 µM (inactive) | 3.48 µM (inactive) | 5.18 µM (inactive) | 18.7 µM (inactive) | 16.9 µM (inactive) | 87.7 µM (inactive) | 13.6 µM (inactive) | 40.8 µM (inactive) | > 100 µM (inactive) | 25.9 µM (inactive) | 31.3 µM (inactive) | 4.3 µM (inactive) | 19.9 µM (inactive) | > 10 µM (inactive) | 24.2 µM (inactive) | > 100 µM (inactive) | 20.6 µM (inactive) | > 100 µM (inactive) | 22.1 µM (inactive) | 41.4 µM (inactive)
